Assays:
[1] = tested on: human aortic smooth muscle cells; assay: Cytotoxic effects of photoinitiator concentrations, MTS assay; assay type: cell-based; conditions: no UV, 3 days
Protocol: (§1) Human aortic smooth muscle cells (HASMC) were cultured in complete medium consisting of Dulbecco's modified Eagle medium supplemented with 10% fetal bovine serum and 1% penicillin-streptomycin (Invitrogen, Carlsbad, Calif.). Upon 80-90% confluency, the cells were passaged or used for experiments. For all experiments, the cells were seeded in 24-well plates (Corning, Corning, N.Y.) at a density of 7000 cells per well. Following seeding, the cells were incubated at 37 °C and 5% CO2 in a humid environment for 2 days to allow cellular attachment and growth. After 2 days, the HASMCs were exposed to varying concentrations of the photoinitiator Irgacure 2959 (Ciba Specialty Chemicals), and/or UV exposure.
To evaluate the cytotoxic effects of photoinitiator concentrations on HASMCs, the cells were seeded and cultured as described earlier. Irgacure 2959 was directly dissolved in complete media to obtain final concentrations of 0.01%, 0.02%, 0.04%, 0.08%, and 0.16% (w/v). These photoinitiator concentrations were well within the range required for photopolymerization in a short period of time. […] These solutions were then sterilized using 0.2-μm syringe filters before they were added to the HASMCs. The control wells consisted of cells incubated with photoinitiator-free complete media. After the addition of the photoinitiator, the cells were incubated for 3 days, and then cell survival was determined using MTS assays. The cell survival for the controls was determined to be 1±0.09. […] Upon increasing the photoinitiator concentrations above 0.02% (w/v), a statistically significant decrease was noticed in the relative cell survival.
(§2) After the experiments, the cell survival was quantified using the MTS assay (CellTiter 961 Aqueous One Solution Cell Proliferation Assay, Promega) following the manufacturer's instructions. The cells were incubated with the MTS reagent for 4 h, after which 200 μL of the solution was transferred to 96-well plates, and absorbance was read at 490 nm using a microplate reader (VMax, Molecular Devices). Relative cell survival was obtained by dividing the absorbance reading of a cell sample by the mean absorbance value of the control.

[2] = tested on: human aortic smooth muscle cells; assay: Combined effects of photoinitiator and UV exposure on cell survival, MTS assay; assay type: cell-based; conditions: 3 days
Protocol: as §1
The cellular damage due to the combined effects of photoinitiator and UV exposure was evaluated. Briefly, the HASMCs were seeded onto 24-well plates and allowed to grow for 2 days. Irgacure 2959 solutions with final concentrations of 0.01%, 0.015%, 0.04%, and 0.08% (w/v) in complete media were prepared. After adding these solutions, cells were incubated for 30 min to allow for the mixing of the photoinitiator. The well plates were then exposed to 1, 3, and 5 min of UV light. Wells containing cells not exposed to either UV light or photoinitiator solution served as controls for this experiment. Cell samples were incubated for 3 days before analyzing the cell survival. […] The cell survival for the controls was determined to be 1±0.09.
as §2

NIH/3T3 fibroblast cells = conditions: concentrations 0.05% (w/w); cited from earlier work
[3] = tested on: human aortic smooth muscle cells; assay: Ascorbic acid scavenging of free radicals to increase cell survival, MTS assay; assay type: cell-based; conditions: 50 mg/L ascorbic acid, 0.15% (w/v) Irgacure 2959, 5 min UV, 3 days
Protocol: The efficiency of the antioxidant, ascorbic acid, was evaluated in scavenging the free radicals in an effort to increase cell survival. HASMCs were exposed to 0.15% (w/v) solution of Irgacure 2959 in complete media supplemented with varying concentrations of ascorbic acid (0-200 mg/L). After incubating for 30 min, the cells were exposed to 5 min of UV light, and cell survival was quantified after 3 days. To evaluate the effect of added antioxidants on the gelation time, the gelation times (i.e., the time required for the materials to form a gel) were determined using three methods on 96-well plates. […] Then, the solution was monitored at that this specific wavelength AQ3 (610 nm) over a time course. The result was graphed as function of time, and the gelation time was defined as the time that had the highest changes in the absorbance intensities.
as §2

CC(C)(O)C(=O)c1ccc(OCCO)cc1 [Irgacure 2959, 2-hydroxy-1-[4-(2-hydroxyethoxy)phenyl]-2-methyl-1-propanone]
relative cell survival ([1]; 0.01% (w/v)): 1.03±0.10
relative cell survival ([1]; 0.02% (w/v)): 0.85±0.09
relative cell survival ([1]; 0.16% (w/v)): 0.25±0.01
cell survival ([1]; below 0.02% (w/v)): no significant decrease in cell survival
relative cell survival ([2]; 0.01% (w/v), 1, 3 and 5 min UV): did not show any statistically significant decrease in relative cell survival
relative cell survival ([2]; 0.015% (w/v), 1, 3 and 5 min UV): did not show any statistically significant decrease in relative cell survival
relative cell survival ([2]; 0.04% (w/v), 1 min UV): 0.76±0.05
relative cell survival ([2]; 0.04% (w/v), 3 min UV): 0.74±0.04
relative cell survival ([2]; 0.04% (w/v), 5 min UV): 0.67±0.05
fibroblast survival (NIH/3T3 fibroblast cells): does not affect fibroblast survival

O=C1O[C@H]([C@@H](O)CO)C(O)=C1O [ascorbic acid]
relative cell survival compared to samples without ascorbic acid [3]: significantly improve the relative cell survival rates

Reference: patent publication US20110171309A1, “Compositions and Methods for Composite Nanoparticle Hydrogels” (Board of Regents, The University of Texas System, priority 2008, published 2011)
